From publication PMC3684770 (Free Radical Biology & Medicine, 2013)
Where “and” joins values, the source holds several entries; their conditions need not be identical. Equal values may be shown once. Where a name gives a salt, the structure may show the parent alone.

Legend:
P-glycoprotein = system: P-glycoprotein; set-up: method as in PMID 19093450; settings: cited from earlier work
[1] = system: primary mouse motor neurons; test: Primary motor neuron/astrocyte coculture, menadione stress; format: cell-based; settings: 24-h pretreatment, 6 h 10 µM menadione
Description: Mouse glial cultures were established based on published methods [[68,69]]. Primary spinal cord motor neurons (MNs) were cultured from E13.5 C57Bl/6 mouse embryos as described previously. Cocultures were allowed to establish for 2 weeks and neuroprotection assays performed. Cocultures were exposed to drug or vehicle for 24 h followed by a 6-h treatment with menadione (10 μM) to induce oxidative stress or with no stress to determine the effect of drug alone. Following stress treatment, coverslips were washed 3 times, fixed, and permeabilised, and MNs immunostained with SMI32 (Covance, UK). Total MNs were counted by fluorescence microscopy in a 1.5 cm^2 area per coverslip. A minimum of three repeats in triplicate were performed per condition. Both vehicle and drug treatments were counted with and without stress treatment, and results were analysed by two-way ANOVA using Bonferroni post tests.

NQO1 protein expression = test: Western blot NQO1 in wild-type MEFs; format: cell-based, mouse; settings: EC90 concentration, 24 h
Description: Cells were isolated and lysed in a RIPA buffer containing protease inhibitor cocktail (Roche), quantified for protein content by Bradford assay, and loaded 30 μg per sample. Samples were run on a 12.5% acrylamide gel under reducing conditions with a prestained marker and transferred to polyvinylidene fluoride membrane and blocked in 5% milk. Mouse anti-alpha-tubulin, clone DM1A (Sigma), and rabbit anti-NQO1 (kind gift from Prof. John Hayes, University of Dundee) were used at 1 in 1000 dilution in Tris-buffered saline containing Tween. Polyclonal goat anti-mouse (Abcam-Ab97040) and polyclonal goat anti-rabbit (Dako Cat. No. P0448), horseradish peroxidase-conjugated secondary antibodies were used for detection of relevant primary antibodies. Bands were visualised by enhanced chemiluminescence reagents (Geneflow EZ-ECL kit). Relative band intensities were captured, using subsaturation, and quantified using a Gbox iChem XT digital imaging system (Syngene).

primary mouse astrocytes = test: Total glutathione assay in primary mouse astrocytes and conditioned media; format: cell-based; settings: 24-h pretreatment
Description: Primary astrocytes were grown to confluency in 24-well plates and then treated with drug (or 0.05% DMSO vehicle) in phenol red-free DMEM containing 10% FBS and penicillin/streptomycin for 24 h. Conditioned medium was collected and astrocytes were then washed in ice-cold PBS before addition of 250 μl/well of sulphosalicylic acid (SSA, 5% (w/v)). Plates were frozen at −80 °C and thawed at 37 °C, twice, and then incubated at 4 °C for 15 min. The supernatant was removed and centrifuged at 13,000 g for 5 min. Conditioned medium samples were incubated at 80 °C for 15 min and then centrifuged at 13,000 g for 5 min. Samples were either used immediately or stored at −80 °C. Reaction mixture (150 μl/well; 100 mM potassium phosphate buffer, pH 7.0, 1 mM EDTA, 6 Units/ml glutathione reductase, 1.5 mg/ml 5,5′-dithiobis(2-nitrobenzoic acid)) was added to 10 μl of each sample or glutathione standard (0–50 μM reduced glutathione) in a 96-well plate and incubated at room temperature for 5 min before addition of 50 μl/well of NADPH solution (0.16 mg/ml). A412nm was measured every minute for 15 min and the total glutathione concentration (GSH + GSSG) was calculated from initial rates. Samples were tested in triplicate.

[2] = system: HO-1 and NQO1 gene expression; test: Q-RTPCR of Nrf2-regulated genes in primary mouse astrocytes; format: cell-based; settings: 24-h treatment at EC50 and EC90
Description: (§1) Nrf2 Target gene expression was determined using Q-RTPCR as described previously using the following primers: Ho-1 forward primer, cac ttc gtc aga ggc ctg cta; Ho-1 reverse primer, gcg gtg tct ggg atg agc ta; Nqo1 forward primer, cgc ctg agc cca gat att gt; Nqo1 reverse primer, act gca atg gga act gaa ata tca; GAPDH forward, gaa acc tgc caa gta tga tga cat; GAPDH reverse, ggt cct cag tgt agc cca aga t.

[3] = system: HO-1 and NQO1 gene expression; test: Q-RTPCR of Nrf2-regulated genes in C6 cells; format: cell-based, rat; settings: C6, 24-h treatment at EC50 and EC90
Description: as §1

NSC34 cells = test: NSC34 oxidative stress assay (serum withdrawal, DCF); settings: for Emax: NSC-34, 24 h, read-out: NSC34 oxidative stress assay Max reduction; for NSC34 oxidative stress assay Toxic dose: minimum dose at which toxicity was observed
Description: (§3) Media were then replaced with serum-free, phenol-free media for 5 h.

Nrf2-ARE pathway [4] = test: ARE reporter assay in CHO 4xARE-TK-GFP cells (Spectrum library hits); settings: for Toxic dose: lowest dose at which a reduction in GFP fluorescence was observed
[5] = system: 1321N1 astrocyte cell line; test: 1321N1 oxidative stress assay (serum withdrawal, DCF); settings: for Emax / IC50: Homo sapiens; for Emax: 1321-N1, 24 h, read-out: 1321N1 oxidative stress assay Max reduction; for IC50: 1321-N1, read-out: 1321N1 oxidative stress assay IC50; for 1321N1 oxidative stress assay Toxic dose: minimum dose at which toxicity was observed
Description: as §3

[6] = system: NQO1 and HO-1 gene expression; test: Q-RTPCR in astrocytes from SOD1G93A transgenic mice; format: cell-based, mouse; settings: G93A SOD1 astrocytes, 24-h pretreatment at EC90 (andrographolide also EC50)
Description: as §1

C6 astrocyte cell line = test: C6 oxidative stress assay (serum withdrawal, DCF); settings: for Emax / IC50: Rattus norvegicus, Astrocyte; for Emax: 24 h, read-out: C6 oxidative stress assay Max reduction; for IC50: read-out: C6 oxidative stress assay IC50; for C6 oxidative stress assay Toxic dose: minimum dose at which toxicity was observed
Description: as §3

heme oxygenase 1 (HO-1) = test: HO-1 immunofluorescence staining in primary mouse astrocytes; format: cell-based; settings: EC90 concentration, 24 h
Nrf2-ARE pathway [7] = test: ARE reporter assay in C6 astrocyte cell line (C6-ARE); format: cell-based, rat
Text: (§2) Chinese hamster ovary (CHO), NSC34 mouse motor neuronal cells […] The ARE-TK-GFP and TK-GFP reporter constructs were a kind gift from William E. Fahl McArdle Laboratory for Cancer Research, University of Wisconsin. […] The NSC34 cell lines stably expressing G93A mutant hSOD1 have been described previously. […] Mouse embryonic fibroblasts were generated and maintained as described previously.

D4 receptors = settings: read-out: Ki D4 receptors; cited from earlier work
D1 receptors = settings: read-out: Ki D1 receptors; cited from earlier work
[8] = Pharmacokinetic analysis in C57Bl/6 mice; format: in vivo, mouse; settings: C57Bl/6, mouse, brain / plasma; iv 1 mg/kg; read-out: brain uptake (AUCinfinity brain / AUCinfinity plasma)
Description: Pharmacokinetic studies were performed by Pharmidex (London, UK). […] All concentrations were calculated with reference to the relevant standard curve. An extraction buffer (EB) solution of acetonitrile with 0.1% formic acid (Fisher Scientific, HPLC grade) and 500 ng/ml of propranolol as the internal standard (IS) was used for in all extraction protocols.

Nrf2-ARE pathway [9] = test: ARE reporter assay in NSC34 cell line (NSC34-ARE); format: cell-based, mouse
Text: as §2

[10] = system: primary fibroblasts from ALS patients; test: Menadione-induced cell death in fibroblasts (MTT); format: cell-based, human; settings: sporadic and I113T SOD1 ALS fibroblasts, 4 µM
Description: The method used was essentially as described previously. Briefly methylthiazolyldiphenyl-tetrazolium bromide (MTT) was added to the cells and a blank well to a final concentration 0.5 mg/ml and incubated at 37 °C for 1–3 h depending on the cell line used. Cells and reaction product were solubilised in 20% SDS/50% DMF for 1 h with shaking at room temperature before reading the absorbance at 595 nm.

SOD1G93A transgenic mice = test: SOD1G93A transgenic mouse model of ALS; format: in vivo
Description: Pharmacology experiments in SOD1^G93A transgenic mice were conducted according to the published guidelines for studies in this model. […] The litters were split to enable an even distribution of sex and parentage between the two comparison groups and the groups randomly assigned to treatment or control. […] Behavioural assessment was carried out blinded to treatment group. Rotarod training was performed over 3 days with 2 trials per day. Subsequently, the rotarod test was performed once per week in the afternoon. On each day, mice were tested twice with a rest period in between tests. The best score was taken for analysis. […] Latency to fall (s) was recorded in seconds for each mouse. […] They were placed on the catwalk apparatus in complete darkness and the recording of gait patterns was performed in a separate room. Multiple runs were recorded for each mouse and three selected for analysis. Processing of gait data was performed using the dedicated software, with the assignment of limbs performed manually and subsequent automated calculation of gait parameters.
Specimens were incubated overnight in 20% sucrose and then embedded in OCT embedding matrix. Thirty five-micrometer-thick longitudinal sections were collected. […] Images were captured on an Incell 2000 and innervated (yellow) or denervated (red) end-plates were counted with a minimum of 1000 NMJs counted per animal.

HO-1 gene expression = test: Pharmacodynamic analysis: gene expression in spinal cord; format: in vivo, mouse; settings: 5 mg/kg sc, 48 h postdosing
Text: RNA was isolated using Qiagen RNeasy mini kit and Q-RTPCR performed on HO-1 and NQO-1 genes as described previously.

[11] = system: primary fibroblasts from ALS patients; test: Oxidative stress assay in ALS patient and control fibroblasts; format: cell-based, human; settings: 4 µM
Description: Fibroblasts were obtained from human controls (n=3) and ALS patients with I113T SOD1 mutations (n=3) and sporadic ALS patients (n=2). […] The cells were incubated at 37 °C/5% CO2 overnight. The following day the media were removed and the cells were washed with 200 µl 1XP BS. Phenol red-free DMEM/F12 media (Sigma D6434) was added in the presence of 10% serum/2 mM Gln (++), 10% serum/0 mM Gln (+−), or 0% serum/0 mM Gln (−−). Cells were incubated at 37 °C/5% CO2 for 5 h.
Carboxy-H2DCFDA fluorescence was normalised to live cell number (total EthD1 signal after freeze/thaw – EthD1 signal after assay) to compare between the different cell lines. Data were analysed by one-way ANOVA with Bonferroni post tests using GraphPad Prism
DMEM/F12 (50 µl) media were added in the presence of 10% serum/0 mM Gln (+−) and the cells were incubated at 37 °C and 5% CO2 for 5 h.
The data were tested for normality and analysed by one-way ANOVA using GraphPad Prism.

| SMILES | motor neuron numbers after menadione [1] | total glutathione levels (primary mouse astrocytes) | HO-1 and NQO1 gene expression [2] | HO-1 and NQO1 gene expression [3] | Emax (NSC34 cells; Mus musculus) | NSC34 oxidative stress assay Toxic dose (NSC34 cells) | EC50 (Nrf2-ARE pathway [4]; Cricetulus griseus) | Toxic dose (Nrf2-ARE pathway [4]) | Emax [5] | IC50 [5] | 1321N1 oxidative stress assay Toxic dose [5] | transcripts for NQO1 and HO1 [6] | Emax (C6 astrocyte cell line) | IC50 (C6 astrocyte cell line) | C6 oxidative stress assay Toxic dose (C6 astrocyte cell line) | further results |
| --- | --- | --- | --- | --- | --- | --- | --- | --- | --- | --- | --- | --- | --- | --- | --- | --- |
| C=C1CC[C@@H]2[C@](C)(CO)[C@H](O)CC[C@@]2(C)[C@@H]1C/C=C1/C(=O)OC[C@H]1O [Andrographolide] | significant neuroprotective effects | enhance glutathione production | statistically significant changes in gene expression | statistically significant changes in gene expression | 0% | 10 µM | 740 nM | 100 µM | 35% | 501 nM | 10 µM | significant increase in transcripts | 69% | 192 nM | 10 µM | P-glycoprotein substrate (P-glycoprotein): substrate; NQO1 protein expression, fold over vehicle (NQO1 protein expression): 3.6 fold and > 3 fold; maximal fold induction (Nrf2-ARE pathway [4]; Cricetulus griseus, CHO, 24 h, read-out: Fold GFP induction): 3.61; HO-1 staining index (heme oxygenase 1 (HO-1)): significant increase in HO-1 staining |
| CN1CCc2cccc3c2[C@H]1Cc1ccc(O)c(O)c1-3 [Apomorphine hydrochloride, reference compound] |  |  |  |  | 25% | 10 µM | 25900 nM | 100 µM | 79% | 1700 nM | None |  | 62% | 1690 nM | None | dose showing toxicity (Nrf2-ARE pathway [7]; C6-ARE, highest dose): 30 µM; Ki (D4 receptors): 4.4 nM; IC50 (NSC34 cells; Mus musculus, NSC-34, read-out: NSC34 oxidative stress assay IC50): 174 nM; Ki (D1 receptors): 370 nM |
| CN1CCc2cccc3c2[C@@H]1Cc1ccc(O)c(O)c1-3 [S[+]-apomorphine] | significant neuroprotective effects | enhance glutathione production | statistically significant changes in gene expression | statistically significant changes in gene expression |  |  |  |  |  |  |  | significant increase in transcripts |  |  |  | Kp [8]: 2.28; potency of Nrf2-ARE activation compared with the R[–] enantiomer (Nrf2-ARE pathway [7]; C6 cells): equally potent; EC50 (Nrf2-ARE pathway [7]; Rattus norvegicus, C6 astrocyte cell line, concentration used in fibroblast assay, read-out: approximate EC50 concentration): ~4000 nM; activation of Nrf2-ARE reporter (Nrf2-ARE pathway [9]): shows some activation; concentration showing activation of Nrf2-ARE reporter (Nrf2-ARE pathway [9]): ≥ 1 µM; menadione-induced cell death (MTT) [10]: significantly attenuated cell death; time taken to reach a 20% decline in rotarod performance (median) (SOD1G93A transgenic mice; 5 mg/kg sc daily from Day 21, vehicle 6 weeks): 8 weeks; oxidised glutathione levels in spinal cord (SOD1G93A transgenic mice; 60 days of age, vehicle 7.1): 4.2 µM; gastrocnemius muscle innervation (SOD1G93A transgenic mice; 60 days of age, vehicle 28.1%): 39.5%; survival (SOD1G93A transgenic mice; failure of the righting response within 10 s): did not observe a significant improvement in survival; fore-limb and hind-limb stride length (gait analysis) (SOD1G93A transgenic mice; later stages of disease): significant delay in decline; motor neuron numbers at end-stage (SOD1G93A transgenic mice; mouse, in vivo): did not observe a significant improvement; HO-1 gene induction in whole spinal cord (HO-1 gene expression): 3.5 fold; reduction of oxidative stress (DCF) in control fibroblasts ([11]; control fibroblasts): nonsignificant; basal oxidative stress (DCF) in patient fibroblasts ([11]; sporadic and I113T SOD1 ALS fibroblasts, 24 h): significant reduction in basal oxidative stress |
